Test results reported in ChEMBL document CHEMBL5390209, “Spinosyn A and Its Derivative Inhibit Colorectal Cancer Cell Growth via the EGFR Pathway” (J Nat Prod, 2023).
Calls of active or inactive are those of the source. No cut-off for these calls is given here.

What was measured:
[1] = target: Epidermal growth factor receptor (Homo sapiens) (UniProt P00533); experiment: Inhibition of EGFR in human HT-29 cells assessed as reduction in MEK1/2 phosphorylation level at 3.75 to 15 uM incubated for 24 hrs by Western blotting analysis; type: cell-based; conditions: dose 3.75-15 µM
Sequence of Epidermal growth factor receptor (Homo sapiens) (P00533 whole entry): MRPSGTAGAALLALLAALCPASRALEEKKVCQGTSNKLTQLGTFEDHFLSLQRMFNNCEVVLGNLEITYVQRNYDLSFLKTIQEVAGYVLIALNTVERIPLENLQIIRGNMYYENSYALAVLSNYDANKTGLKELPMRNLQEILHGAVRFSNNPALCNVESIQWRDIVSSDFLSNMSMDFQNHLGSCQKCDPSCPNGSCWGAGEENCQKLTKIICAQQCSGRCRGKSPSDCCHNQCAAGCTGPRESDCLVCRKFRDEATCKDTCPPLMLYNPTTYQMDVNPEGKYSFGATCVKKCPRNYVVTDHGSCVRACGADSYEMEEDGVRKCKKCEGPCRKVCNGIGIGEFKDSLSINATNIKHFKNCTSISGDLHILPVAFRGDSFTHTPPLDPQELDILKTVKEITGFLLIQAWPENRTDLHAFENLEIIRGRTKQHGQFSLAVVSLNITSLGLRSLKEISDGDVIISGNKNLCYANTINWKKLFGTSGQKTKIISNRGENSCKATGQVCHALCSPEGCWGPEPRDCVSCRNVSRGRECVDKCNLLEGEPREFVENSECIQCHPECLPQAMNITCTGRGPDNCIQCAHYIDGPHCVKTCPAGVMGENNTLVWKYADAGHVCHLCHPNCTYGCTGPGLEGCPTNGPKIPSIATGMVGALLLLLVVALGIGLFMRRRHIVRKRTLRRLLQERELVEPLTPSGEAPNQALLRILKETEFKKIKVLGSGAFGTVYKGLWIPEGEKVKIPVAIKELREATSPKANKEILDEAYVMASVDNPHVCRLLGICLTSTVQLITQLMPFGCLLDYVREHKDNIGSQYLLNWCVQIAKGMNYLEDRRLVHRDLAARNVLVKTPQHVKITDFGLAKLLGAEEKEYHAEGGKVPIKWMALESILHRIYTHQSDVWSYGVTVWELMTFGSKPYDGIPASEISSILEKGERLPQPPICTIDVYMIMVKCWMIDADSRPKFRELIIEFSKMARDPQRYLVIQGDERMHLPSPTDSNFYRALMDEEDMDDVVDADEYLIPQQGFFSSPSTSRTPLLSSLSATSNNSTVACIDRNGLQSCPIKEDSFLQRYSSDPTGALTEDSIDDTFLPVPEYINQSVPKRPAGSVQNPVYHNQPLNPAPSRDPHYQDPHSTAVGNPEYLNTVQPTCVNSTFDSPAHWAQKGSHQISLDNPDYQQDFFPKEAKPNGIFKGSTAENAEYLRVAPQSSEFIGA

HT-29 [2] = experiment: Antiproliferative activity against human HT-29 cells assessed as cell growth inhibition incubated for 48 hrs by MTT assay; type: functional, cell-based; conditions: for IC50: HT-29, 48 h
SW480 [3] = experiment: Antiproliferative activity against human SW480 cells assessed as cell growth inhibition incubated for 48 hrs by MTT assay; type: functional, cell-based; conditions: dose >= 10.0 µM
SW-620 = experiment: Antiproliferative activity against human SW620 cells assessed as cell growth inhibition incubated for 48 hrs by MTT assay; type: functional, cell-based; conditions: dose >= 10.0 µM
HCT-116 [4] = experiment: Antiproliferative activity against human HCT-116 cells assessed as cell growth inhibition incubated for 48 hrs by MTT assay; type: functional, cell-based; conditions: dose >= 10.0 µM
LoVo = experiment: Antiproliferative activity against human LoVo cells assessed as cell growth inhibition incubated for 48 hrs by MTT assay; type: functional, cell-based; conditions: dose >= 10.0 µM
RKO = experiment: Antiproliferative activity against human RKO cells assessed as cell growth inhibition incubated for 48 hrs by MTT assay; type: functional, cell-based
DLD-1 = experiment: Antiproliferative activity against human DLD-1 cells assessed as cell growth inhibition incubated for 48 hrs by MTT assay; type: functional, cell-based; conditions: dose >= 10.0 µM
HT-29 [5] = experiment: Inhibition of colony formation in human HT-29 cells at 6 uM incubated for 14 days by crystal violet staining based colony formation assay; type: functional, cell-based; conditions: time 14.0 day
SW480 [6] = experiment: Inhibition of colony formation in human SW480 cells at 6 uM incubated for 14 days by crystal violet staining based colony formation assay; type: functional, cell-based; conditions: time 14.0 day
HCT-116 [7] = experiment: Inhibition of colony formation in human HCT-116 cells at 6 uM incubated for 14 days by crystal violet staining based colony formation assay; type: functional, cell-based; conditions: time 14.0 day
[8] = Toxicity in human HT-29 cells xenografted Balb/c mouse assessed as change in kidney pathology at 5 mg/kg/day, ip administrated for every other day and measured after 28 days; type: organism-based; conditions: in vivo, 672 h, time 28 day
HT-29 [9] = experiment: Antiproliferative activity against EGFR knockout human HT-29 cells assessed as reduction in cell viability incubated for 48 hrs by MTT assay; type: functional, cell-based
SW480 [10] = experiment: Antiproliferative activity against EGFR knockout human SW480 cells assessed as reduction in cell viability incubated for 48 hrs by MTT assay; type: functional, cell-based
HT-29 [11] = experiment: Antiproliferative activity against HER2 knockout human HT-29 cells assessed as reduction in cell viability incubated for 48 hrs by MTT assay; type: functional, cell-based
HT-29 [12] = experiment: Antiproliferative activity against double EGFR/HER2 knockout human HT-29 cells assessed as reduction in cell viability incubated for 48 hrs by MTT assay; type: functional, cell-based
SW480 [13] = experiment: Antiproliferative activity against double EGFR/HER2 knockout human SW480 cells assessed as reduction in cell viability incubated for 48 hrs by MTT assay; type: functional, cell-based
[14] = target: Epidermal growth factor receptor (Homo sapiens) (UniProt P00533); experiment: Inhibition of EGFR in human HT-29 cells incubated for 24 hrs by Western blotting analysis; type: cell-based; conditions: dose 3.75-15 µM
[15] = target: Receptor tyrosine-protein kinase erbB-2 (Homo sapiens) (UniProt P04626); experiment: Inhibition of HER2 in human HT-29 cells incubated for 24 hrs by Western blotting analysis; type: cell-based
Sequence of Receptor tyrosine-protein kinase erbB-2 (Homo sapiens) (P04626 whole entry): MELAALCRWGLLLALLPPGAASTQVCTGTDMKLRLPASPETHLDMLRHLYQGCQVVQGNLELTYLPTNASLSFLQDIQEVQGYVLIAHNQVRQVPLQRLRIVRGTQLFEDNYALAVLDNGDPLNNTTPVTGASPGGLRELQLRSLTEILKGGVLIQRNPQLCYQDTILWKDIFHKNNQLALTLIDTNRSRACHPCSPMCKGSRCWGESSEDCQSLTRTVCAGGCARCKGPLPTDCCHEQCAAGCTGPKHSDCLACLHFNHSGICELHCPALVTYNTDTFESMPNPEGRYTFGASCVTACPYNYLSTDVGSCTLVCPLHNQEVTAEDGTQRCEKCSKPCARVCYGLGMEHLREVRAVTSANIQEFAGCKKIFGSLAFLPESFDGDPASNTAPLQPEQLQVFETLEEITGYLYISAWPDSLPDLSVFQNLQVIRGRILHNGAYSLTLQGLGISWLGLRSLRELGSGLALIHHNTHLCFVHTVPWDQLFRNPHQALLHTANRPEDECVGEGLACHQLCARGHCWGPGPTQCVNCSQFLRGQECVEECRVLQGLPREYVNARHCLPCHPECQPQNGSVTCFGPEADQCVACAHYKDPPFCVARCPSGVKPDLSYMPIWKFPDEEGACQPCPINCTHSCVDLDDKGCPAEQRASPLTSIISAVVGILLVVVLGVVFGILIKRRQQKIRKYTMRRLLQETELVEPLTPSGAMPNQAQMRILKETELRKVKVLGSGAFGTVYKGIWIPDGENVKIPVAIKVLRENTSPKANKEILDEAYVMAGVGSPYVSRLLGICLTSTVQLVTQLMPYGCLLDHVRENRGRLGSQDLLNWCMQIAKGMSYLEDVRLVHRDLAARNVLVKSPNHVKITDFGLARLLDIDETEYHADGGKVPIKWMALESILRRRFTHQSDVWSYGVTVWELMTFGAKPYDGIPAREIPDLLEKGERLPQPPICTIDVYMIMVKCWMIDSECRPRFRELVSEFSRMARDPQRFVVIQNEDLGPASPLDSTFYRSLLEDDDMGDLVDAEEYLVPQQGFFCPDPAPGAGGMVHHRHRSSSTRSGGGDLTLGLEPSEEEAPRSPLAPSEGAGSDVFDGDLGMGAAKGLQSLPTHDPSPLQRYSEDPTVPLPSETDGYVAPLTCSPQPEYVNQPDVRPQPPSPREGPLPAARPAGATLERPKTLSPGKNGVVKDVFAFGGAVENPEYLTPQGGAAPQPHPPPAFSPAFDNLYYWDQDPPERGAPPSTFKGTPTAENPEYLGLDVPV

[16] = target: Epidermal growth factor receptor (Homo sapiens) (UniProt P00533); experiment: Inhibition of EGFR phosphorylation in human HT-29 cells incubated for 24 hrs by Western blotting analysis; type: cell-based
[17] = target: Receptor tyrosine-protein kinase erbB-2 (Homo sapiens) (UniProt P04626); experiment: Inhibition of HER2 phosphorylation in human HT-29 cells incubated for 24 hrs by Western blotting analysis; type: cell-based
[18] = target: Epidermal growth factor receptor (Homo sapiens) (UniProt P00533); experiment: Inhibition of EGFR in human SW480 cells incubated for 24 hrs by Western blotting analysis; type: cell-based
[19] = target: Receptor tyrosine-protein kinase erbB-2 (Homo sapiens) (UniProt P04626); experiment: Inhibition of HER2 in human SW480 cells incubated for 24 hrs by Western blotting analysis; type: cell-based
[20] = target: Epidermal growth factor receptor (Homo sapiens) (UniProt P00533); experiment: Inhibition of EGFR phosphorylation in human SW480 cells incubated for 24 hrs by Western blotting analysis; type: cell-based
[21] = target: Receptor tyrosine-protein kinase erbB-2 (Homo sapiens) (UniProt P04626); experiment: Inhibition of HER2 phosphorylation in human SW480 cells incubated for 24 hrs by Western blotting analysis; type: cell-based
[22] = target: Epidermal growth factor receptor (Homo sapiens) (UniProt P00533); experiment: Inhibition of EGFR in human HT-29 cells assessed as reduction in Erk1/2 phosphorylation level at 3.75 to 15 uM incubated for 24 hrs by Western blotting analysis; type: cell-based; conditions: dose 3.75-15 µM
[23] = target: Epidermal growth factor receptor (Homo sapiens) (UniProt P00533); experiment: Inhibition of EGFR in human SW480 cells assessed as reduction in MEK1/2 phosphorylation level at 3.75 to 15 uM incubated for 24 hrs by Western blot analysis; type: cell-based; conditions: dose 3.75-15 µM
[24] = target: Epidermal growth factor receptor (Homo sapiens) (UniProt P00533); experiment: Inhibition of EGFR in human SW480 cells assessed as reduction in Erk1/2 phosphorylation level at 3.75 to 15 uM incubated for 24 hrs by Western blot analysis; type: cell-based; conditions: dose 3.75-15 µM
HT-29 [25] = experiment: Inhibition of EGFR in human HT-29 cells xenografted in BALB/c nude mouse assessed as EGFR protein level in tumor at 5 mg/kg/day, ip administrated for every other day and measured after 28 days by Western blotting analysis; type: functional, organism-based; conditions: time 28.0 day
HT-29 [26] = experiment: Inhibition of EGFR in human HT-29 cells xenografted in BALB/c nude mouse assessed as reduction in EGFR protein expression level in tumor at 5 mg/kg/day, ip administrated for every other day and measured after 28 days by immunohistochemistry staining based analysis; type: functional, organism-based; conditions: time 28.0 day
HT-29 [27] = experiment: Inhibition of HER2 in human HT-29 cells xenografted in BALB/c nude mouse assessed as reduction in HER2 protein expression level at 5 mg/kg/day, ip administrated for every other day and measured after 28 days by immunohistochemistry staining based analysis; type: functional, organism-based; conditions: time 28.0 day
HT-29 [28] = experiment: Inhibition of colony formation in human HT-29 cells at 0.75 uM incubated for 14 days by crystal violet staining based colony formation assay; type: functional, cell-based; conditions: time 14.0 day
[29] = Toxicity in human HT-29 cells xenografted Balb/c mouse assessed as change in lung pathology at 2.5 mg/kg/day, ip administrated for every other day and measured after 28 days; type: organism-based; conditions: in vivo, 672 h, time 28 day
HT-29 [30] = experiment: Inhibition of colony formation in EGFR knockdown human HT-29 cells at 0.75 uM incubated for 14 days by crystal violet staining based colony formation assay; type: functional, cell-based; conditions: time 14.0 day
[31] = target: Epidermal growth factor receptor (Homo sapiens) (UniProt P00533); experiment: Inhibition of EGFR in human HT-29 cells assessed as reduction in MEK1/2 phosphorylation level at 2 uM by Western blotting analysis; type: cell-based; conditions: time 3-15 hrs, TDE = time-dependent effect
[32] = target: Epidermal growth factor receptor (Homo sapiens) (UniProt P00533); experiment: Inhibition of EGFR in human HT-29 cells assessed as reduction in Erk1/2 phosphorylation level at 2 uM by Western blotting analysis; type: cell-based; conditions: time 3-15 hrs, TDE = time-dependent effect
[33] = target: Epidermal growth factor receptor (Homo sapiens) (UniProt P00533); experiment: Inhibition of EGFR in human HT-29 cells assessed as reduction in ratio of p-EGFR/EGFR level at 2 uM measured after 3 to 15 hrs by Western blot analysis; type: cell-based; conditions: time 3-15 hrs
[34] = target: Epidermal growth factor receptor (Homo sapiens) (UniProt P00533); experiment: Inhibition of EGFR in human SW480 cells assessed as reduction in MEK1/2 phosphorylation level at 0.5 to 2 uM incubated for 24 hrs by Western blotting analysis; type: cell-based; conditions: dose 0.5-2 µM
[35] = target: Epidermal growth factor receptor (Homo sapiens) (UniProt P00533); experiment: Inhibition of EGFR in human SW480 cells assessed as reduction in Erk1/2 phosphorylation level at 0.5 to 2 uM incubated for 24 hrs by Western blotting analysis; type: cell-based; conditions: dose 0.5-2 µM
[36] = target: Epidermal growth factor receptor (Homo sapiens) (UniProt P00533); experiment: Inhibition of EGFR in human SW480 cells assessed as reduction in STAT3 phosphorylation level at 0.5 to 2 uM incubated for 24 hrs by Western blot analysis; type: cell-based; conditions: dose 0.5-2 µM

| Structure (SMILES) | Activity (HT-29 [2]) | IC50 (HT-29 [2]) | Activity (SW480 [3]) | Activity (SW-620) | Activity (HCT-116 [4]) | Activity (LoVo) | IC50 (RKO) | Activity (DLD-1) | Activity (HT-29 [9]) | Activity (SW480 [10]) | Activity (HT-29 [11]) | Activity (HT-29 [12]) | Activity (SW480 [13]) | inhibition [14] | inhibition [15] | inhibition [16] | inhibition [17] | inhibition [18] | inhibition [19] | inhibition [20] | further results |
| --- | --- | --- | --- | --- | --- | --- | --- | --- | --- | --- | --- | --- | --- | --- | --- | --- | --- | --- | --- | --- | --- |
| CC[C@H]1CCC[C@H](O[C@H]2CC[C@H](N(C)C)[C@@H](C)O2)[C@@H](C)C(=O)C2=C[C@@H]3[C@@H](C=C[C@@H]4C[C@@H](O[C@@H]5O[C@@H](C)[C@H](OC)[C@@H](OC)[C@H]5OC)C[C@@H]34)[C@@H]2CC(=O)O1 [SPINOSYN A] | Dose-Dependent Effect | 7.3 µM | Dose-Dependent Effect | Dose-Dependent Effect | Dose-Dependent Effect | Dose-Dependent Effect | 17 µM | Dose-Dependent Effect | inactive | inactive | inactive | inactive | inactive | Dose-Dependent Effect | Dose-Dependent Effect | Dose-Dependent Effect | Dose-Dependent Effect | Dose-Dependent Effect | Dose-Dependent Effect | Dose-Dependent Effect | inhibition [1]: Active; Activity (RKO; dose >= 10.0 µM): Dose-Dependent Effect; inhibition (HT-29 [5]): Active; inhibition (SW480 [6]): Active; inhibition (HCT-116 [7]): Active; Activity [8]: Non-Toxic; inhibition [21]: Dose-Dependent Effect; inhibition [22]: Active; inhibition [23]: Active; inhibition [24]: Active; inhibition (HT-29 [25]): Active; inhibition (HT-29 [26]): Active; inhibition (HT-29 [27]): Active |
| CC[C@H]1CCC[C@H](O[C@H]2CC[C@H](N(C)CC(O)CN3CCNCC3)[C@@H](C)O2)[C@@H](C)C(=O)C2=C[C@@H]3[C@@H](C=C[C@@H]4C[C@@H](O[C@@H]5O[C@@H](C)[C@H](OC)[C@@H](OC)[C@H]5OC)C[C@@H]34)[C@@H]2CC(=O)O1 (some centres undefined) | Dose-Dependent Effect | 0.75 µM | Dose-Dependent Effect | Dose-Dependent Effect | Dose-Dependent Effect | Dose-Dependent Effect | 3.3 µM | Dose-Dependent Effect | inactive | inactive | inactive | inactive | inactive | Dose-Dependent Effect | Dose-Dependent Effect | Dose-Dependent Effect | Dose-Dependent Effect | Dose-Dependent Effect | Dose-Dependent Effect | Dose-Dependent Effect | inhibition (RKO; dose >= 10.0 µM): Dose-Dependent Effect; inhibition (HT-29 [28]): Active; Activity [29]: Non-Toxic; Activity (HT-29 [30]): inactive; inhibition [21]: Dose-Dependent Effect; inhibition [31]: Tde; inhibition [32]: Tde; inhibition [33]: Active; inhibition [34]: Active; inhibition [35]: Active; inhibition [36]: Active |
